In patent US12240859B2, “Turbinmicin compounds, compositions and uses thereof” (Wisconsin Alumni Research Foundation, priority 2019, dated 2025):
Converted amounts (≈) assume the structure as drawn. Where two headings read alike, the source gives them in different places.

Tests used:
C. albicans = assay: Time kill experiments; format: cell-based, Candida albicans; conditions: C. albicans (K-1, FIG. 6B), 1x to 16x MIC, 0-48 h
Protocol: FIGS. 6A-C show time-kill curves for turbinmicin against (6A) C. auris B11211, (6B) C. albicans K-1, and (6C) C. glabrata 4720.
Time Kill Experiments. Fresh Candida colonies from an overnight growth were added to normal saline and the turbidity was adjusted to a 0.6 transmittance at 530 nm to provide a standard suspension (1*10^6 CFU/mL). This suspension was diluted with RPMI 1640 medium buffered with MOPS and a standard compound stock solution to achieve a starting inoculum of approximately 10^5 CFU/ml. Each 20 mL culture (RPMI 1640 medium buffered with MOPS) was incubated at 35° C. with constant shaking, and 0.1 mL samples were withdrawn for the determination of fungal counts at 0, 2, 4, 6, 8, 24 and 48 h. Colony counts were determined by viable counts on sabouraud agar plate (SDA) after incubation for 48 h. Growth control for each organism were prepared without antifungal and run in parallel.

C. auris = assay: In vitro MIC susceptibility testing, broth microdilution; format: cell-based, Candida auris; conditions: Candidozyma auris
Protocol: (§1) In vitro MIC susceptibility testing. […]. Amphotericin B was used as a positive control and the MICs range were 0.25-1.5 μg/mL. Six untreated media controls were included on each plate. The plates were incubated at 33° C. for 72 h. The MICs were determined as the lowest concentration that inhibited visible growth. The MICs were read at 24, 48, and 72 hours, respectively. […]

A. fumigatus F11628 = assay: Neutropenic murine nasal aspiration pneumonia model of invasive pulmonary aspergillosis; format: in vivo, Aspergillus fumigatus
Rhizopus oryzae = assay: In vitro MIC susceptibility testing; format: cell-based; conditions: Rhizopus arrhizus
Protocol: as §1

Aspergillus fumigatus = assay: In vitro MIC susceptibility testing; format: cell-based
Protocol: as §1

Apophysomyces elegans = assay: In vitro MIC susceptibility testing; format: cell-based
Protocol: as §1

Lichteimia corymbiferea = assay: In vitro MIC susceptibility testing; format: cell-based
Protocol: as §1

Rhizopus delemar = assay: In vitro MIC susceptibility testing; format: cell-based
Protocol: as §1

Scedosporium spp. = assay: In vitro MIC susceptibility testing; format: cell-based
Protocol: as §1

[1] = system: Cynninghamella bertholletiae; assay: In vitro MIC susceptibility testing; format: cell-based
Protocol: as §1

Mucor circinelloides = assay: In vitro MIC susceptibility testing; format: cell-based
Protocol: as §1

C. albicans K1 = assay: Neutropenic murine disseminated candidiasis model, C. albicans K1; format: in vivo, Candida albicans; conditions: mice
Text: Animals. Six-week-old ICR Swiss specific-pathogen-free female mice weighing 23 to 27 g were used for all studies. Animals were maintained in accordance with the American Association for Accreditation of Laboratory Care criteria. Animal studies were approved by the University of Wisconsin Animal Research Committee.
C. auris B11211 and C. albicans K1 Infection model. A neutropenic, murine, disseminated candidiasis model was used for the treatment studies. Mice were rendered neutropenic (neutrophils, <100/mm^3) by injecting them with cyclophosphamide (Mead Johnson Pharmaceuticals, Evansville, IN) subcutaneously 4 days (150 mg/kg) and 1 day (100 mg/kg) before infection, and 2 days after infection (100 mg/kg). Previous studies have shown neutropenia (<100 mm^3) in this model for the 96-h study period.
Disseminated infection with C. auris B11211 infection was produced by injection of 0.1 ml of the inoculum via the lateral tail vein 2 h prior to the start of antifungal therapy. […] The results are expressed as the mean and standard deviation of the log10 CFU/kidney from three mice. […]
Results. A multi-dose experiment with C. auris B11211 infection murine model was evaluated, and four doses (1, 2, 4, and 8 mg/kg) of turbinmicin were administered to mice every six hours over a 24 h period; turbinmicin was administered by intraperitoneal route.

C. tropicalis = assay: In vitro MIC susceptibility testing, broth microdilution; format: cell-based; conditions: Candida tropicalis
Protocol: In vitro MIC susceptibility testing. […] The plates were incubated at 33° C. for 72 h. The MICs were determined as the lowest concentration that inhibited visible growth. The MICs were read at 24, 48, and 72 hours, respectively.

sheep red blood cells = assay: Hemolysis assay; format: cell-based; conditions: 1 h, concentrations exceeding the MIC by 1000-fold
Protocol: Hemolysis Assay. Assays were performed in 384-well plates using sheep blood (0.1% triton as the positive control). Sheep's blood (Ward's Science) was washed with PBS and diluted to a concentration of 6×10^7 red blood cells per ml. A volume of 50 μL of blood was incubated with compound for 1 h, and subsequently pelleted at 4000 rpm for 10 min. Thirty microliters of supernatant were transferred to a clear plate and OD570 was read. An increase in OD indicated the red blood cell lysis and hemolytic activity.

In the case of C/C=C/C=C/C=C/C(=O)OC1C=CCC2C(=O)c3c(O)c4c5c(c3OC12)OCOC5CC1C(=O)c2cc(C)[nH]c(=O)c2C(=O)C41O (stereo not drawn) [Turbinmicin, turbinmicin], the time-kill activity (C. albicans) is reported as “Fungacidal activity was observed”, the MIC (C. auris; strain B11104) is reported as 0.5 µg/mL (≈ 0.797 µM) and the MIC (C. auris; strain B11203) is reported as 0.5 µg/mL (≈ 0.797 µM). It also gave an MIC (C. auris; strain B11211, resistant to amphotericin B, fluconazole, micafungin, read-out: MIC) of 0.25 µg/mL (≈ 0.398 µM), an MIC (C. auris; strain B11219) of 0.25 µg/mL (≈ 0.398 µM) and an MIC (C. auris; strain B11220) of 0.125 µg/mL (≈ 0.199 µM). It also gave an MIC (C. auris; strain B11221) of 0.5 µg/mL (≈ 0.797 µM), an MIC (C. auris; strain B11785) of 0.25 µg/mL (≈ 0.398 µM) and an MIC (C. auris; strain B11799) of 0.5 µg/mL (≈ 0.797 µM). The MIC (C. auris; strain B11801) was 0.5 µg/mL (≈ 0.797 µM), the MIC (C. auris; strain B11804) was 0.5 µg/mL (≈ 0.797 µM) and the survival (A. fumigatus F11628; mice, 0.25, 0.5 and 1 mg/kg IP every 6 hrs for 4 days, all three dosages) was 100%. The “CE/mL reduction of lung homogenate measured by qPCR” value (A. fumigatus F11628; mice, dose of 1 mg/kg IP every 6 hrs for 4 days) was 1 log 10 CE/mL, the MIC (Rhizopus oryzae) was > 8 µg/mL and the MIC (Aspergillus fumigatus; strain 293, read-out: MIC) was 0.125 µg/mL (≈ 0.199 µM). For the same molecule, the MIC (Aspergillus fumigatus; strain F11628 (11628), Cyp51 G138C, triazole resistant) was 0.03 µg/mL (≈ 0.0478 µM), the MIC (Aspergillus fumigatus; strain F14403, Cyp51 G54R) was 0.25 µg/mL (≈ 0.398 µM) and the MIC (Aspergillus fumigatus; strain F14532, Cyp51 M220T) was 0.25 µg/mL (≈ 0.398 µM). For the same molecule, the MIC (Aspergillus fumigatus; strain F16216, Cyp51 L98H + TR) was 0.25 µg/mL, the MIC (Apophysomyces elegans) was 4 µg/mL (≈ 6.37 µM) and the MIC (Lichteimia corymbiferea) was 4 µg/mL (≈ 6.37 µM). The MIC (Rhizopus delemar) was 4 µg/mL (≈ 6.37 µM), the MIC (Scedosporium spp.) was 0.5 µg/mL (≈ 0.797 µM) and the MIC [1] was > 8 µg/mL. The MIC (Mucor circinelloides) was 4 µg/mL (≈ 6.37 µM), the CFU/kidney reduction (C. albicans K1; multi-dose 1, 2, 4 and 8 mg/kg intraperitoneal over 24 hours) was > 1 log 10 CFU/kidney and the “in vivo efficacy, single dose” value (C. albicans K1; single intraperitoneal dose 16, 32, 48 and 64 mg/kg, 6 h) was “showed in vivo efficacy”. It also gave an MIC (C. tropicalis; ATCC750, strain ATCC 750) of 0.25 µg/mL (≈ 0.398 µM), an MIC (C. tropicalis; strain 001) of 0.5 µg/mL (≈ 0.797 µM) and an MIC (C. tropicalis; strain 98-234) of 0.5 µg/mL (≈ 0.797 µM). The MIC (C. tropicalis; strain 1751) was 0.25 µg/mL (≈ 0.398 µM), the MIC (C. tropicalis; strain 2597) was 0.25 µg/mL (≈ 0.398 µM) and the “red blood cell toxicity (hemolysis)” value (sheep red blood cells) was “did not exhibit red blood cell toxicity”.
